Blank lines part the entries; values can stand above or below the compound they belong to.
Tests used:
PRMT1 [1] = molecular target: T1, PRMT1 (Homo sapiens, UniProt Q99873); assay: ADMA and MMA levels by Western blot in MCF-7 cells (PRMT1 / Type I PRMT inhibition); type: cell-based; conditions: 10 μM, 24 h; for change in monomethylation of arginine (MMA): Western blot
T1 construct: endogenous in cells; host or cells: MCF-7
Source text: The cells were allowed to adhere overnight.
manufacturer’s instructions.

MCF-7 cell line = assay: Cytotoxicity seen in the MCF-7 degradation experiment; type: cell-based, human; conditions: MCF-7 cells, 10 μM, 24 h
KP-3 line = assay: Cytotoxicity seen in the KP-3 degradation experiment; type: cell-based, human; conditions: KP-3 cells, 10 μM, 24 h
Protocol: Figure S5. VHL-recruiting PROTACs in two PDAC-derived cell lines. Western blot of PROTAC A-F in two PDAC-derived cell lines at 10 µM. HPAF-II and KP-3 cells were treated with the indicated compounds at 10 µM for 24 h and then harvested for analysis by Western blot. PROTAC E and PROTAC F were cytotoxic in the KP-3 line.
(1 picture or pasted object on this page, not shown here)

NLuc-CRBN fusion protein = molecular target: T2, NLuc-CRBN fusion protein (Homo sapiens, UniProt Q96SW2); assay: CRBN NanoBRET Target Engagement assay in live MCF-7 cells; type: cell-based; conditions: 0.5 µM tracer, 2 h, read-out: IC50, half-maximal inhibition of tracer binding to NLuc-CRBN
T2 construct: host or cells: MCF-7
T2 sequence (Q16531 whole entry, the tested form may be a part): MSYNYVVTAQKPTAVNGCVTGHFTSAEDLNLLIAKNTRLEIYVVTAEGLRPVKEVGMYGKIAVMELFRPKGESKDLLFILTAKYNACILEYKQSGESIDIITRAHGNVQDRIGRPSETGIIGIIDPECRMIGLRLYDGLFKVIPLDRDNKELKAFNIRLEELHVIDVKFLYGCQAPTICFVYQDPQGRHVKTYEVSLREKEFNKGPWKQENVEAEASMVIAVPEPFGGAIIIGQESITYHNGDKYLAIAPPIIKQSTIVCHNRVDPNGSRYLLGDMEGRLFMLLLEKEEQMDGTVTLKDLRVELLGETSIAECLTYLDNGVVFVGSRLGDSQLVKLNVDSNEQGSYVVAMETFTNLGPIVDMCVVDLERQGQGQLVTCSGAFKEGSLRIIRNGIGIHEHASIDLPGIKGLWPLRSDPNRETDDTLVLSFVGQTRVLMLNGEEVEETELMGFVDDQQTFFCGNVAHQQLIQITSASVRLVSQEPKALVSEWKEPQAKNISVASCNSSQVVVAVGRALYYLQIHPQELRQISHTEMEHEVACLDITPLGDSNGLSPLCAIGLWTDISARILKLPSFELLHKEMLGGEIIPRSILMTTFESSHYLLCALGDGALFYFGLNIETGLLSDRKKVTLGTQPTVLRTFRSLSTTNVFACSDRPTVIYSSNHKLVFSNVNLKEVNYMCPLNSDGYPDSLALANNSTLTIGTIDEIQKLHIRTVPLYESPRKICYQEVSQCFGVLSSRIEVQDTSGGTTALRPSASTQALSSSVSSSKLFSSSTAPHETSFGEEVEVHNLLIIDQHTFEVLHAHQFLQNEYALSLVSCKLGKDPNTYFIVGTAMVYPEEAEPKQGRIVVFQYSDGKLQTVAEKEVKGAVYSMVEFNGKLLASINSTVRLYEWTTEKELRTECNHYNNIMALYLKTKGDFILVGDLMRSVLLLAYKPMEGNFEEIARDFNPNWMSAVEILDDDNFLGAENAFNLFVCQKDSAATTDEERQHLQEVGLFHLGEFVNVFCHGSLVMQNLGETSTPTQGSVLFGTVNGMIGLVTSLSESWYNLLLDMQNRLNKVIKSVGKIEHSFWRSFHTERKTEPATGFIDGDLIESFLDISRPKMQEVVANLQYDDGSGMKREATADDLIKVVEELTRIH
T2 sequence (Q96SW2 whole entry, the tested form may be a part): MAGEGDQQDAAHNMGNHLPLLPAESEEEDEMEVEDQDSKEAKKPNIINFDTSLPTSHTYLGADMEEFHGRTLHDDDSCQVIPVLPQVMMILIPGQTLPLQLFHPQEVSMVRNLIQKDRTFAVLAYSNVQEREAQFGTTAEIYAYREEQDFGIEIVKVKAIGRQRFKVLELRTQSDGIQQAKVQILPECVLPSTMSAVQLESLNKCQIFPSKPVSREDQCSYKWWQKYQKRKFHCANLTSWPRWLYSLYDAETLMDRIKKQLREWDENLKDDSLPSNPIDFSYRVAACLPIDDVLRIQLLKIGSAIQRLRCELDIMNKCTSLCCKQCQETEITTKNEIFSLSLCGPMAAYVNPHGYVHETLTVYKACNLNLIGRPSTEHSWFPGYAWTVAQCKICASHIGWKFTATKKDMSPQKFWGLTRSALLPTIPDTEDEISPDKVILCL

[2] = PROTAC stability in cell culture media; type: in vitro ADME; conditions: read-out: t1/2 in cell culture media (converted)
Source text: A SEM protecting group was employed on the glutarimide ring of CRBN ligand 6. Three CRBN‐recruiting PROTACs were synthesised by the O‐alkylation of PRMT1 ligand 4 with the corresponding linker 8 j–l to give 9 j–l which underwent a subsequent O‐alkylation with SEM‐protected CRBN ligand 12. The removal of the protecting groups was then attempted using acidic conditions. The N‐Boc and THP protecting groups on the PRMT1 ligand were removed however the SEM group on the CRBN ligand was converted to an N‐hydroxymethyl functional group. This group was removed under basic conditions to afford PROTACs J–L (Scheme 3 A). It is documented that the glutarimide ring and the phthalimide group of the CRBN ligand are susceptible to hydrolysis,[50, 51] and the stability of PROTAC L in cell culture media was investigated and found to be short (t1/2=0.9 h). Changing the functional group between the CRBN ligand and linker can affect the susceptibility of the ligand to hydrolysis.[52] PROTAC M was synthesised, which comprised a similar structure as PROTAC L, but with an amino group between the linker and CRBN ligand (Scheme 3 B).

PRMT1 [3] = molecular target: T1, PRMT1; assay: PRMT1 degradation assay by Western blot in MCF-7 cells; type: cell-based; conditions: 1 and 0.1 μM, 24 h
Source text: A sensitive and selective Western blot protocol was validated to investigate the effect of PROTAC treatment on the cellular levels of PRMT1 in the MCF‐7 cell line (Figure S4, ESI†). Derived from a metastatic breast adenocarcinoma, the MCF‐7 cell line has the hormone receptor status that characterises the most frequently diagnosed subtype of breast cancer: ER‐positive, PR‐positive, HER2‐negative.[43, 44] This breast cancer subtype, and consequently the MCF‐7 cell line, are a suitable model system to predict the clinical efficacy of PRMT1 PROTACs; PRMT1 upregulation correlates with a reduction in relapse‐free survival for patients with this breast cancer subtype[6, 45] and anti‐proliferative effects have been observed in the MCF‐7 cell line following pan‐Type I PRMT inhibition.[17, 20]
Figure 3 PRMT1 and PRMT6 degradation assays with VHL‐recruiting PROTACs. […] PROTACs E–F were cytotoxic and not analysed. […]
(§1) Western Blot Cells were counted using the Vi-CELL XR cell viability analyser, as per manufactures instructions, and the desired number of cells seeded in full media in individual 10 cm plates (Corning, #430167). […]
(§2) The pellet was resuspended in RIPA buffer containing protease and phosphatase inhibitor and incubated at 4 °C for 10 minutes with rotation. […] The supernatant was transferred and the protein concentration quantified by the Direct Detect Spectrometer as per manufacturer’s instructions. […]

PRMT6 = molecular target: T3, PRMT6 (Homo sapiens, UniProt Q96LA8); assay: PRMT6 degradation assay by Western blot in MCF-7 cells; type: cell-based; conditions: 1 and 0.1 μM, 24 h
T3 construct: endogenous in cells; host or cells: MCF-7
T3 sequence (Q96LA8 whole entry): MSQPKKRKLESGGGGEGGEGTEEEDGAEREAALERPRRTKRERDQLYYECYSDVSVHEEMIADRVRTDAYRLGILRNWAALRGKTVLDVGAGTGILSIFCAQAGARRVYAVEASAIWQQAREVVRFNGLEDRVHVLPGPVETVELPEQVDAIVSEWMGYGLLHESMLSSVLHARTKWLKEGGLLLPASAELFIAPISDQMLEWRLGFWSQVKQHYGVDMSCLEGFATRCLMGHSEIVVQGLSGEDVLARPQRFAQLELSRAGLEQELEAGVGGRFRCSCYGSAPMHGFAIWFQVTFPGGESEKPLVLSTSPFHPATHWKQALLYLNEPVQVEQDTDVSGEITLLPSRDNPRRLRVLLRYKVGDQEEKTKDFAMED
Protocol: At 10 μM in the MCF‐7 cell line, PRMT1 degradation was not observed with any of the synthesised PROTACs (Figure 3A). PROTAC E and PROTAC F were cytotoxic and not analysed. […]. PRMT8 is expressed primarily in the brain and thus not investigated.[46]
Figure 3 PRMT1 and PRMT6 degradation assays with VHL‐recruiting PROTACs. A) PROTACs A–I at 10 μM. PROTACs E–F were cytotoxic and not analysed. MCF‐7 cells were treated with the indicated compound for 24 h and then harvested for analysis by Western blot. B) Same as A but PROTACs tested at 1 and 0.1 μM. Image representative of two independent experiments. Uncropped blots are shown in ESI†.
Figure 5 PRMT1 and PRMT6 degradation assays with CRBN‐recruiting PROTACs. A) PROTACs J–O at 10 μM. MCF‐7 cells were treated with the indicated compound for 24 h and then harvested for analysis by Western blot. B) Same as A but PROTAC N tested at 1 and 0.1 μM. […]
as §1, §2

CRBN = molecular target: T4, CRBN (Homo sapiens, UniProt Q96SW2); assay: CRBN binding of N-alkylated molecule 7 (Figure S6)
T4 construct: host or cells: MCF-7
T4 sequence (Q96SW2 whole entry): as the sequence (Q96SW2 whole entry, the tested form may be a part) above
T4 sequence (Q16531 whole entry, further chain): as the sequence (Q16531 whole entry, the tested form may be a part) above
Source text: To synthesise PROTACs that recruit the CRBN E3‐ligase, PRMT1 ligand 4 underwent a Mitsunobu reaction to produce 5 which was then used for the alkylation of CRBN ligand 6.

T1 sequence (Q99873 whole entry): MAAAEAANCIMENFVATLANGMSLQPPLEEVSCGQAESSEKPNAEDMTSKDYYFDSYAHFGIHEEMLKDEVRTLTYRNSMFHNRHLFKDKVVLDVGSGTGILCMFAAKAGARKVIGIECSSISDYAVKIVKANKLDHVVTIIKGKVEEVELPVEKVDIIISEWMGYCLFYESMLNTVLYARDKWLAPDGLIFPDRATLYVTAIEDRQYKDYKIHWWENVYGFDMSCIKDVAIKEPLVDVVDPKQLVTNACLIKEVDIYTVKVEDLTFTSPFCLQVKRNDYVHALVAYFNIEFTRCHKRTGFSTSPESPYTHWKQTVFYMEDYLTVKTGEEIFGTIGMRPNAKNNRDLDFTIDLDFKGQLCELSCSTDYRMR

- change in monomethylation of arginine (MMA) (PRMT1 [1]): significant increase
SMILES: CNCCN(C)Cc1c[nH]nc1-c1ccc(OCCCCCCCC(=O)N[C@H](C(=O)N2C[C@H](O)C[C@H]2C(=O)NCc2ccc(-c3scnc3C)cc2)C(C)(C)C)cc1 [PROTAC C]

- change in monomethylation of arginine (MMA) (PRMT1 [1]): significant increase
SMILES: CNCCN(C)Cc1c[nH]nc1-c1ccc(OCCCCCCCCCC(=O)N[C@H](C(=O)N2C[C@H](O)C[C@H]2C(=O)NCc2ccc(-c3scnc3C)cc2)C(C)(C)C)cc1 [PROTAC D]

SMILES: CNCCN(C)Cc1c[nH]nc1-c1ccc(OCCCCCCCCCCCC(=O)N[C@H](C(=O)N2C[C@H](O)C[C@H]2C(=O)NCc2ccc(-c3scnc3C)cc2)C(C)(C)C)cc1 [PROTAC E]
- cytotoxicity (MCF-7 cell line): cytotoxic
- cytotoxicity (KP-3 line): cytotoxic

SMILES: CNCCN(C)Cc1c[nH]nc1-c1ccc(OCCCCCCCCCCCCCCCC(=O)N[C@H](C(=O)N2C[C@H](O)C[C@H]2C(=O)NCc2ccc(-c3scnc3C)cc2)C(C)(C)C)cc1 [PROTAC F]
- cytotoxicity (MCF-7 cell line): cytotoxic
- cytotoxicity (KP-3 line): cytotoxic

- IC50 (NLuc-CRBN fusion protein): > 10000 nM
- half-life [2]: 0.9 h
SMILES: CNCCN(C)Cc1c[nH]nc1-c1ccc(OCCOCCOCCOCCOCCOCCOc2cccc3c2C(=O)N(C2CCC(=O)NC2=O)C3=O)cc1 (stereo not drawn) [PROTAC L]

- IC50 (NLuc-CRBN fusion protein): 1900 nM
- half-life [2]: 2.1 h
SMILES: CNCCN(C)Cc1c[nH]nc1-c1ccc(OCCOCCOCCOCCOCCOCCNc2cccc3c2C(=O)N(C2CCC(=O)NC2=O)C3=O)cc1 (stereo not drawn) [PROTAC M]

- IC50 (NLuc-CRBN fusion protein): 200 nM
- inhibition of PRMT1 activity (PRMT1 [1]; ADMA/MMA Western blot): inhibited PRMT1 activity
SMILES: CNCCN(C)Cc1c[nH]nc1-c1ccc(OCCCCCCNc2cccc3c2C(=O)N(C2CCC(=O)NC2=O)C3=O)cc1 (stereo not drawn) [PROTAC N]
- PRMT1 degradation (PRMT1 [3]): neither PRMT1 nor PRMT6 degradation was observed
- PRMT6 degradation (PRMT6): neither PRMT1 nor PRMT6 degradation was observed

- CRBN binding (CRBN): does not bind CRBN
SMILES: CNCCN(C)Cc1c[nH]nc1-c1ccc(OCCOCCN2C(=O)CCC(N3C(=O)c4cccc(O)c4C3=O)C2=O)cc1 (stereo not drawn) [compound 7]

Reference: article PMC13494812, “Towards the Targeted Protein Degradation of PRMT1” (Chemmedchem, 2024)
